Data as given in patent US11596692B1 (Incyte Corporation, priority 2018, dated 2023).
Like-named read-outs stand apart in the source and are kept apart here.

How the values were obtained:
[1] = system: IRF3 activation in PD-L1 high HEK293T STING reporter cell line; assay: IRF3 activation in HEK293T STING reporter cells, high PD-L1; type: cell-based, human; settings: high PD-L1 cells, 20 hours; read-out: IRF Activation EC50 (nM), High PD-L1
Protocol: (§1) HEK293T STING reporter cell line was purchased from Invivogen and expressed low level of PD-L1. This cell line was then engineered at Incyte Research Institute to overexpress human PD-L1. Both PD-L1 high and PD-L1 low HEK293T cell lines were plated at 100,000 cells/100 μL/well in 10% fetal calf serum-containing DMEM culture medium in a 96-well flat bottom plate. Serial dilutions of PD-L1 small molecule-conjugated STING agonists were then added to the corresponding wells, and incubated for 20 hours at 37° C. In a competition study setting, 1 μM of a PD-L1 small molecule was added in the corresponding wells to compete with the binding of PD-L1 small molecule-conjugated STING agonists. At the end of the incubation, the culture supernatants were carefully removed from each well, and the amount of IRF3 activation was determined by adding Quanti-Blue substrate in accordance with the manufacturer's protocol.
(§2) 293T-Dual hSTING-R232 (ISG/KI-IFNb) cells that were generated from 293T-Dual Null (ISG/KI-IFNb) cells by stable transfection of the R232 isoform of human STING were purchased from Invivogen (Invivogen #293d-r232).
(§3) This cell line expresses an ISRE-inducible SEAP (secreted embryonic alkaline phosphatase) reporter construct, which monitors the activation of interferon regulatory factor (IRF) and its binding to ISRE (IFN-stimulated response elements). These reporter cells express low level of PD-L1. Human PD-L1 was then overexpressed in these cells through stable transfection.
(§4) These 293T-Dual hSTING-R232 reporter cells as well as293T-Dual hSTING-R232 reporter cells overexpressing huPD-L1 were treated with various concentrations of STING compounds for 20 hours. After 20 hours, interferon regulatory factor (IRF) activity was assessed by measuring SEAP levels in the supernatant using QUNTI-Blue. EC50 values were generated by curve fit in Prism software.

[2] = system: IRF3 activation in PD-L1 low HEK293T STING reporter cell line; assay: IRF3 activation in HEK293T STING reporter cells, low PD-L1; type: cell-based, human; settings: 20 hours, read-out: IRF Activation EC50 (nM), Low PD-L1
Protocol: as §1, §2, §3, §4

PD-L1 = PD-L1 (Homo sapiens (Human), UniProt Q9NZQ7); assay: PD-L1 surface levels on HEK293T STING reporter cells, high PD-L1; type: cell-based
PD-L1, sequence (Q9NZQ7 19-290): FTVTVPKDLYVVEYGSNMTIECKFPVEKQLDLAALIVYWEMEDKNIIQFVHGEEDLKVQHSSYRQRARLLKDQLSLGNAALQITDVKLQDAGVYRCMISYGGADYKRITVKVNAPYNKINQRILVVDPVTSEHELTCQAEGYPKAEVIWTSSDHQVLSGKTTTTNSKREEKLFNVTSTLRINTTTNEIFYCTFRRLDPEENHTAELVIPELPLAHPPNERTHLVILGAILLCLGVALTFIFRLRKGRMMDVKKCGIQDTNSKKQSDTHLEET
Protocol: To determine PD-L1 expression on HEK cells after treatment of PD-L1-small molecule conjugated STING agonists, cells were harvested at 20 hours post-treatment. Single cell suspensions were then stained with phycoerythrin-conjugated anti-PD-L1 antibody (BD Bioscience), and the PD-L1 expression were then analyzed by flow cytometry. Mean fluorescence intensity was used as the relative level of surface PD-L1 expression on cells (FIG. 1 and Table 6).
Also, cells were stained with PE-conjugated anti-human PD-L1 antibody to determine surface PD-L1 expression. Cell acquisition was performed on BD LSRFortessa X-20 (BD Biosciences). Data was analyzed using FlowJo software. IC50 values were calculated using Prism Software.

| IC50 (PD-L1; high PD-L1 cells, 20 hours, read-out: PD-L1 Internalization IC50 (nM), High PD-L1) | SMILES | EC50 [1] | EC50 [2] | IC50 (PD-L1) |
| --- | --- | --- | --- | --- |
|  | CCn1nc(C)cc1C(=O)Nc1nc2cc(C(N)=O)cc(OCCCNC(=O)OCCNC(=O)[C@H](CC(=O)O)NC(=O)[C@H](CC(=O)O)NC(=O)[C@H](CCCNC(=N)N)NC(=O)[C@H](CC(=O)O)NC(=O)CCCN3CCc4c(nc(C(=O)Nc5cccc(-c6cccc(NC(=O)c7nc8c(n7C)CCN(CCCC(=O)O)C8)c6Cl)c5Cl)n4C)C3)c2n1C/C=C/Cn1c2nc(-c3cc(C)nn3CC)ncc2c2cc(C(N)=O)cc(OC)c21 [Example 24] | < 50 nM | < 50 nM | < 50 nM |
|  | CCn1nc(C)cc1C(=O)Nc1nc2cc(C(N)=O)cc(OC)c2n1C/C=C/Cn1c(NC(=O)c2cc(C)nn2CC)nc2cc(C(N)=O)cc(OCCCNC(=O)[C@H](CC(=O)O)NC(=O)[C@H](CC(=O)O)NC(=O)[C@H](CCCNC(=N)N)NC(=O)[C@H](CC(=O)O)NC(=O)CCNC(=O)C3CCN(Cc4cc(C#N)c5oc(-c6cccc(-c7cccc(Nc8nc(C(F)F)nc9cc(CN%10CC[C@@H](O)C%10)cnc89)c7C)c6C)nc5c4)CC3)c21 [Example 8] | < 50 nM | 50 to 200 nM | 200 to 1000 nM |
|  | CCn1nc(C)cc1C(=O)Nc1nc2cc(C(N)=O)cc(OCCCNC(=O)[C@H](CC(=O)O)NC(=O)[C@H](CC(=O)O)NC(=O)[C@H](CCCNC(N)=O)NC(=O)[C@H](CC(=O)O)NC(=O)CCCN3CCc4c(nc(C(=O)Nc5cccc(-c6cccc(NC(=O)c7nc8c(n7C)CCN(CCCC(=O)O)C8)c6Cl)c5Cl)n4C)C3)c2n1C/C=C/Cn1c2nc(-c3cc(C)nn3CC)ncc2c2cc(C(N)=O)cc(OC)c21 [Example 21] | < 50 nM | 50 to 200 nM | < 50 nM |
|  | CCn1nc(C)cc1C(=O)Nc1nc2cc(C(N)=O)cc(OCCCNC(=O)CCNC(=O)OCc3ccc(NC(=O)[C@H](CCCNC(N)=O)NC(=O)[C@@H](NC(=O)Cn4cc(CCNC(=O)[C@H](CC(=O)O)NC(=O)[C@H](CC(=O)O)NC(=O)[C@H](CCCNC(=N)N)NC(=O)[C@H](CC(=O)O)NC(=O)CCCN5CCc6c(nc(C(=O)Nc7cccc(-c8cccc(NC(=O)c9nc%10c(n9C)CCN(CCCC(=O)O)C%10)c8Cl)c7Cl)n6C)C5)nn4)C(C)C)cc3)c2n1C/C=C/Cn1c2nc(-c3cc(C)nn3CC)ncc2c2cc(C(N)=O)cc(OC)c21 [Example 9] | < 50 nM | 200 to 1000 nM | 50 to 200 nM |
| < 50 nM | CCn1nc(C)cc1C(=O)Nc1nc2cc(C(N)=O)cc(OC)c2n1C/C=C/Cn1c(NC(=O)c2cc(C)nn2CC)nc2cc(C(N)=O)cc(OCCCNC(=O)[C@H](CC(=O)O)NC(=O)[C@H](CC(=O)O)NC(=O)CCCN3CCc4c(nc(C(=O)Nc5cccc(-c6cccc(NC(=O)c7nc8c(n7C)CCN(CCCC(=O)O)C8)c6Cl)c5Cl)n4C)C3)c21 [Example 10] | < 50 nM | 50 to 200 nM |  |
|  | CCn1nc(C)cc1C(=O)Nc1nc2cc(C(N)=O)cc(OCCCNC(=O)[C@H](CC(=O)O)NC(=O)[C@H](CC(=O)O)NC(=O)[C@H](CCCNC(=N)N)NC(=O)[C@H](CC(=O)O)NC(=O)CCCN3CCc4c(nc(C(=O)Nc5cccc(-c6cccc(NC(=O)c7nc8c(n7C)CCN(CCCC(=O)O)C8)c6Cl)c5Cl)n4C)C3)c2n1C/C=C/Cn1c2nc(-c3cc(C)nn3CC)ncc2c2cc(C(N)=O)cc(OCCCOC)c21 [Example 23] | < 50 nM | 50 to 200 nM | < 50 nM |
|  | CCn1nc(C)cc1C(=O)Nc1nc2cc(C(N)=O)cc(OC)c2n1C/C=C/Cn1c(NC(=O)c2cc(C)nn2CC)nc2cc(C(N)=O)cc(OCCCNC(=O)[C@H](CC(=O)O)NC(=O)[C@H](CC(=O)O)NC(=O)[C@H](CC(=O)O)NC(=O)[C@H](CC(=O)O)NC(=O)[C@H](CC(=O)O)NC(=O)CCCN3CCc4c(nc(C(=O)Nc5cccc(-c6cccc(NC(=O)c7nc8c(n7C)CCN(CCCC(=O)O)C8)c6Cl)c5Cl)n4C)C3)c21 [Example 13] | < 50 nM | 50 to 200 nM | < 50 nM |
|  | CCn1nc(C)cc1C(=O)Nc1nc2cc(C(N)=O)cc(OCCCNC(=O)[C@H](CC(=O)O)NC(=O)[C@H](CC(=O)O)NC(=O)[C@H](CCCNC(=N)N)NC(=O)[C@H](CC(=O)O)NC(=O)[C@H](CC(=O)O)NC(=O)[C@H](CC(=O)O)NC(=O)[C@H](CCCNC(=N)N)NC(=O)[C@H](CC(=O)O)NC(=O)CCCN3CCc4c(nc(C(=O)Nc5cccc(-c6cccc(NC(=O)c7nc8c(n7C)CCN(CCCC(=O)O)C8)c6Cl)c5Cl)n4C)C3)c2n1C/C=C/Cn1c2nc(-c3cc(C)nn3CC)ncc2c2cc(C(N)=O)cc(OC)c21 [Example 22] | < 50 nM | < 50 nM | < 50 nM |
|  | CCn1nc(C)cc1C(=O)Nc1nc2cc(C(N)=O)cc(OC)c2n1C/C=C/Cn1c(NC(=O)c2cc(C)nn2CC)nc2cc(C(N)=O)cc(OCCCNC(=O)[C@H](CCC(=O)O)NC(=O)[C@H](CCC(=O)O)NC(=O)[C@H](CCCNC(=N)N)NC(=O)[C@H](CCC(=O)O)NC(=O)CCCN3CCc4c(nc(C(=O)Nc5cccc(-c6cccc(NC(=O)c7nc8c(n7C)CCN(CCCC(=O)O)C8)c6Cl)c5Cl)n4C)C3)c21 [Example 19] | < 50 nM | 50 to 200 nM | < 50 nM |
|  | CCn1nc(C)cc1C(=O)Nc1nc2cc(C(N)=O)cc(OC)c2n1C/C=C/Cn1c(NC(=O)c2cc(C)nn2CC)nc2cc(C(N)=O)cc(OCCCNC(=O)[C@@H](NC(=O)[C@H](CC(=O)O)NC(=O)[C@H](CC(=O)O)NC(=O)[C@H](CCCNC(=N)N)NC(=O)[C@H](CC(=O)O)NC(=O)CCCN3CCc4c(nc(C(=O)Nc5cccc(-c6cccc(NC(=O)c7nc8c(n7C)CCN(CCCC(=O)O)C8)c6Cl)c5Cl)n4C)C3)C(C)(C)C)c21 [Example 20] | < 50 nM | 50 to 200 nM | < 50 nM |
